Test results as given in patent publication US20250360177A1, “FERMENTATION PRODUCT FOR THE TREATMENT OF INFLAMMATORY DISEASES” (ALFASIGMA S.P.A., priority 2022, published 2025).

What was measured:
IL-10 = IL-10 ELISA in LPS-stimulated RAW264.7 macrophages; format: cell-based; conditions: LPS 24 hours
Procedure: Each solution was centrifuged for 20 min at 2500 rpm, the insoluble residues discarded and the supernatant filtered on 0.22-μm PES filters. […] The cells were divided into 5 groups and each group was treated for 2 hours with […] of each of the Solutions obtained from the plant extracts (Sol. Ex1-Ex5). […] At the end of incubation, the supernatants were collected and analyzed by ELISA assay (Invitrogen kit) to detect the amount of IL-10.

[1] = test system: TNBS-induced ulcerative colitis mouse model; assay: TNBS-induced ulcerative colitis in mice, plant extract solutions; format: in vivo, C57BL/6 mice; conditions: TNBS 2 mg/mouse i.r.; 100 mg/kg gavage; day 3
Procedure: Ulcerative colitis was induced in a mouse model by administration of 2,4,6-trinitrobenzenesulfonic acid (TNBS) (Yang et al., Scientific Reports, 2016 6: 29716). Male C57BL/6 mice aged 6-8 weeks were divided into groups of 8 mice each. Solutions obtained from the plant extracts (Sol. […] Ex-1 (Scutellaria baicalensis Georgi)/600μL/mouse per gavage • Group E: TNBS 2 mg/mouse in 100 μL i.r.+Sol. Ex-2 (Phaseolus radiatus)/[…]/mouse per gavage • Group F: TNBS 2 mg/mouse in 100 μL i.r.+Sol. Ex-3 (Curcuma longa)/600 μL/mouse per gavage • Group G: TNBS 2 mg/mouse in 100 μL i.r.+Sol. Ex-5 (Broccoli sprouts)/600 μL/mouse per gavage. Mice were sacrificed 6 h after the last administration by cervical dislocation.

IL-1beta mRNA = IL-1beta mRNA transcription in LPS-stimulated RAW264.7 macrophages (Real-Time PCR); format: cell-based; conditions: 0.1 mM, LPS 24 hours
Procedure: The anti-inflammatory activity of the fermentation product in lyophilic form of L. brevis DSM 33682 obtained in the presence of Phaseolus radiatus sprout extract (Lio-Prob1) according to Example 5, and the product obtained without Phaseolus radiatus sprout extract (Lio-Prob2) according to Example 6, were analyzed by means of determination of the amount of IL-1beta mRNA.
3×10^5 Cells/well of RAW264.7 macrophages (ATCC) were seeded on a 24-well plate.
Ten μl of lipopolysaccharide (LPS) from Sigma-Aldrich n.2630 (10 μg/mL) was added to each well and incubated at 37° C. in a 5% CO2 incubator for 24 hours.
At the end of incubation, macrophage RNA was extracted and analysed by Real-Time PCR to detect the gene transcription level of the proinflammatory cytokine IL-1beta, calculated as the mean value for the treated groups compared with macrophages treated with LPS alone. In particular, total RNA was isolated from each sample using the mini RNeasy kit (QiaGen GmbH, Hilden, Germany), and 1ug of total RNA was reverse transcribed by IScript™ cDNA Synthesis Kit (BioRad, Hercules, CA, USA). Real-time PCR was carried out by a BioRad CFX96 Touch™ Real-Time PCR Detection System using SsoAdvanced Universal SYBR Green super Mix (BioRad). The expression level of each mRNA was assessed using the ΔΔCT method, and Gapdh was used as housekeeping gene for normalization. The following primers were used.

[2] = test system: TNBS-induced ulcerative colitis mouse model; assay: TNBS-induced ulcerative colitis in mice, DAI score and colon length (Example 6); format: in vivo, C57BL/6 mice; conditions: TNBS 2 mg/mouse i.r.; 100 mg/kg per gavage
Procedure: The efficacy of fermentation products of L. brevis DSM 33682 obtained in the presence of Phaseolus radiatus sprout extract (Lio-Prob1) or absence of the extract (Lio-Prob2) was determined by measurement of DAI score and colonic length. Male C57BL/6 mice (Envigo) aged 6-8 weeks (8 mice/group), ulcerative colitis was induced with 2,4,6-trinitrobenzenesulfonic acid (TNBS) (Yang et al., Scientific Reports, 2016 6:29716). […] Mice were sacrificed by cervical dislocation 6 h after the last administration. The disease activity index, expressed by DAI score, of C57BL/6 mice was measured according to the method reported by Yang et al., Scientific Reports, 2016 6:29716.

[3] = test system: TNF-α, IL-1β and IL-10 gene expression; assay: Relative quantitative real-time PCR of colonic cells of TNBS-induced colitis mice; format: in vivo, C57BL/6 mice; conditions: Lio-Prob1 12 mg/kg or mesalazine 100 mg/kg orally 4 days
Procedure: RNA of colonic cells of C57BL/6 male mice treated according to Example 8 was isolated with Trizol (Life-technologies). […] BIO 65053). Real-time PCR was performed using SYBR green Master Mix (#1725150, Biorad). GAPDH was used as internal control. The relative transcription mRNA level was calculated.

[4] = test system: TNBS-induced colitis mice; assay: TNBS-induced colitis in mice, comparison to VSL #3 and E. coli Nissle (Example 12); format: in vivo, C57BL/6 mice; conditions: TNBS 2 mg/mouse ir; 100 mg per kg mouse os, 4 days
Procedure: C57BL/6 Male mice aged 7-8 weeks (ENVIGO, Italy) were housed under standard laboratory conditions: light/dark cycles (12/12 hr), ambient temperature 20±2° C., 55% relative air humidity and food (Mucedola RF18) and water ad libitum.
Colitis was induced in the mice as previously described, using TNBS (Yang et al., Scientific Reports, 2016 6:29716).
After 3 h of colitis induction, each group of mice was orally administered with the corresponding treatment for 4 days. During the 4-day trial, the mice were routinely inspected for their body mass, and diarrhea. All mice were sacrificed by cervical dislocation for sample collection at the end of day 4.

For `CC(=O)O` [Acetate], the “% IL-10 (vs LPS) ± SD” value (IL-10; 5 mM) was 199 ± 14%.

With `CCCC(=O)O` [Butyrate] the “% IL-10 (vs LPS) ± SD” value (IL-10; 0.62 mM) was 268 ± 71%.

With `Nc1ccc(O)c(C(=O)O)c1` [Mesalazine] the “% IL-10 (vs LPS) ± SD” value (IL-10; 0.1 mM) was 216 ± 55%, the “% IL-10 (vs LPS) ± SD” value (IL-10; 0.2 mM) was 269 ± 18% and the “colon length (mm) ± SE” value [1] was 68 ± 1.9 mm. For the same compound, the “mRNA IL-1beta transcription inhibition compared to LPS treatment” value (IL-1beta mRNA) was 59%, the “DAI score ± SE” value [2] was 1.1 ± 0.5 and the “colon length (mm) ± SE” value [2] was 66.6 ± 0.5 mm. For the same compound, the “expression levels of pro-inflammatory genes, including TNF-α and IL-1β (in words)” value ([3]; colon of TNBS-induced acute colitis mice) was “reduced the expression levels of pro-inflammatory genes”, the “expression of IL-10 (in words)” value ([3]; colon of TNBS-induced colitis mice) was “increased” and the “BWL body weight loss % max” value [4] was 4%.

With `CCC(=O)O` [Propionate] the “% IL-10 (vs LPS) ± SD” value (IL-10; 10 mM) was 135 ± 2%.
